Measured values published in patent US20120252853A1, “Positive allosteric modulators of nicotinic acetylcholine receptor” (H. Lundbeck A/S, priority 2011, published 2012).

Target: T1, human KCNQ2 (Homo sapiens, UniProt O43526)
T1 construct: expressed in transfected cells
Test: 86Rb flux in KCNQ2 expressing cells
Format: cell-based
Settings: KCNQ2 opening; 86Rb efflux, CHO-K1 cells stably transfected with human KCNQ2
Method: Chinese hamster ovary cells (CHO-K1) were stably transfected with human KCNQ2 inserted into the pCl-neo vector (Promega). Cells were plated at 2×10^5 cells/ml in 96-well plates in 100 μl media (MEM Alpha media, 10% FBS, 1% P/S, 1% L-Glu, and 1 mg/ml G418). At the time of plating the cells were furthermore loaded with 1 μCi/ml 86Rb over-night. On the subsequent day, the cells were washed with 3×50 μl assay buffer (HBSS+10 mM HEPES, pH 7.4) and incubated in 50 μl buffer with retigabine for 30 minutes at 37° C. Following this preincubation, the cell membrane was depolarized for 30 minutes at 37° C. with 15 mM KCl (final concentration) in assay buffer supplemented with the appropriate amount of compound to maintain drug concentration. The supernatant was removed and placed in pony-vials with 0.5 ml scintillation liquid and counted. The dose-dependent effect of the investigated compounds on the efflux of 86Rb through the hKCNQ2 channels were calculated according to the four parameter logistic equation: Y=Bottom+(Top-Bottom)/(1+10̂((LogEC50-X)*HillSlope)), where X is the logarithm of concentration, Y is the response, and HillSlope is the hill coefficient.
A representative selection of compounds of the invention were tested in the assay in addition to 6 comparative examples wherein 0 has been substituted with a 6-membered ring comprising up to two N atoms. Comparative 1-4 has been disclosed in WO 2009/127678 or WO 2009/127679 and comparative 5-6 are close analogues.

O=C(NCc1ccc2[nH]c(C(F)(F)F)cc2c1)c1ncc(C(F)(F)F)cn1 [Compound C1, 5-Trifluoromethyl-pyrimidine-2-carboxylic acid (2-trifluoromethyl-1H-indol-5-ylmethyl)amide, reference compound] and O=C(NCc1ccc2[nH]c(C(F)(F)F)cc2c1)c1ccc(-c2ccccc2)nc1 [Compound C2, 6-Phenyl-N-(2-trifluoromethyl-1H-indol-5-ylmethyl)-nicotinamide, reference compound] cannot be ordered by EC50: > 50 µM for the first, > 50 µM for the second.

Cc1cc2cc(CNC(=O)c3ccccc3F)ccc2n1C [Compound C6, N-(1,2-Dimethyl-1H-indol-5-ylmethyl)-2-fluoro-benzamide, reference compound] and COc1ccc(C(=O)NCc2ccc3[nH]c(C)cc3c2)cc1 [Compound C5, 4-Methoxy-N-(2-methyl-1H-indol-5-ylmethyl)-benzamide, reference compound] cannot be ordered by EC50: > 50 µM for the first, > 50 µM for the second.

Same assay, conditions: KCNQ2 opening; Max effect determined in % of the effect of 30 mM KCl

In order of falling Emax:
1. O=C(NCc1ccc2[nH]c(C(F)(F)F)cc2c1)c1ncc(C(F)(F)F)cn1 [Compound C1, 5-Trifluoromethyl-pyrimidine-2-carboxylic acid (2-trifluoromethyl-1H-indol-5-ylmethyl)amide, reference compound]  34%
2. O=C(NCc1ccc2[nH]c(C(F)(F)F)cc2c1)c1ccc(-c2ccccc2)nc1 [Compound C2, 6-Phenyl-N-(2-trifluoromethyl-1H-indol-5-ylmethyl)-nicotinamide, reference compound]  31%
3. COc1ccc(C(=O)NCc2ccc3[nH]c(C)cc3c2)cc1 [Compound C5, 4-Methoxy-N-(2-methyl-1H-indol-5-ylmethyl)-benzamide, reference compound]  17%
4. Cc1cc2cc(CNC(=O)c3ccccc3F)ccc2n1C [Compound C6, N-(1,2-Dimethyl-1H-indol-5-ylmethyl)-2-fluoro-benzamide, reference compound]  13%

Target: human α7 receptor (Homo sapiens, UniProt P36544)
Sequence (P36544 23-502): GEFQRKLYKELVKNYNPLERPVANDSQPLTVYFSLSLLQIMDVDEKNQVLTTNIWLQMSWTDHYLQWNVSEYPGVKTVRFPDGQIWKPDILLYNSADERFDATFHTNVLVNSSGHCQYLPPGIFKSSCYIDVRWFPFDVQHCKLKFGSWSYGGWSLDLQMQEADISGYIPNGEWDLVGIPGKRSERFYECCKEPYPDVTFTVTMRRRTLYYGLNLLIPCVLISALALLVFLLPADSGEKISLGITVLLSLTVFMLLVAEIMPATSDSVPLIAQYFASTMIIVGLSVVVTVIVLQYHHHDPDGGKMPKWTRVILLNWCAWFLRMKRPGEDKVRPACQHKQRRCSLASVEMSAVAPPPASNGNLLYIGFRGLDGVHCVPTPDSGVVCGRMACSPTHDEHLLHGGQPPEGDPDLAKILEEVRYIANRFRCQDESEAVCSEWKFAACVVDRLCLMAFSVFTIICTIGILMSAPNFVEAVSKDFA
Test: α7 NNR flux assay (FDSS Ca assay)
Format: cell-based
Settings: positive allosteric modulation; rat GH4C1 cell line stably expressing human α7; acetylcholine 20 μM; % modulation relative to PNU-120596 set to 100%
Method: In this version of the assay, the human α7 receptor is stably expressed in the rat GH4C1 cell line. The assay was used to identify positive allosteric modulators (PAMs) of the α7 receptor. Activation of the channel was measured by loading cells with the calcium-sensitive fluorescent dye Calcium-4 (Assay kit from Molecular Devices), and then measuring real-time changes in fluorescence upon treatment with test compounds.
The cell line ChanClone GH4C1-nAChRalpha7 from Genionics was seeded from frozen stock in 384-well plates in culture media 2-3 days before experiment to form an approximately 80% confluent layer on the day of experiment.
The cell culture were split into “22.5 cm×22.5 cm”-plates with approximately 100×10^3 cells/cm^2. After four days incubation in a humidified incubator at 37° C. and 5% CO2, it had grown to an 80-90% confluent layer, and the cells were harvested.
Two or three days before the experiment the cells were seeded in 384 well plates from Greiner bio-one (781946, CELLCOAT, Poly-D-Lysine, black, μClear).
The cells were seeded in 384 well plates with 30 μL/well (30000 cells/well) while stirring the cell suspension or otherwise preventing the cells from precipitating. The plates were incubated at room temperature for 30-45 minutes. The plates were placed in incubator for two days (37° C. and 5% CO2).
The loading buffer was 5% v/v Calcium-4 Kit and 2.5 mM Probenecid in assay buffer.
Culture media were removed from the cell plates and 20 μL loading buffer was added in each well. The cell plates were placed in trays and incubated 90 minutes in the incubator (37° C.). Thereafter the plates were incubated 30 minutes at room temperature, still protected from light. Now the cell plates were ready to run in the Functional Drug Screening System (FDSS) The assay buffer was HBSS with 20 mM HEPES, pH 7.4 and 3 mM CaCl2.
200 nL 10 mM compound solution in DMSO was diluted in 50 μL assay buffer. The final test concentrations in the cell plates were 20-10-5-2.5-1.25-0.625-0.312-0.156-0.078-0.039 μM. Assay buffer and 3 μM PNU-120596 were used for control:
The agonist acetylcholine was added to a final concentration of 20 μM (˜EC100). In the FDSS7000 the Ex480-Em540 was measured with 1 second intervals. The baseline was made of 5 frames before addition of test compounds, and 95 frames more were made before addition of acetylcholine. The measurement stopped 30 frames after the 2nd addition. Raw data for each well were collected as “the maximum fluorescence count” in the interval 100-131 seconds and as “the average fluorescence count” in the interval 96-100 seconds. The positive allosteric modulation in the 2nd addition was the enhancement of agonist response with test compound compared to agonist alone.
Results were calculated as % modulation of test compound compared to the reference PNU-120596 set to 100%.

In order of rising EC50:
1. Cc1cc2cc(CNC(=O)c3ccc(Cl)s3)ccc2[nH]1 [Compound 3, 5-Chloro-thiophene-2-carboxylic acid (2-methyl-1H-indol-5-ylmethyl)-amide]  0.13 µM
2. Cc1cc2cc(CNC(=O)c3cc(CC(F)(F)F)no3)ccc2[nH]1 [Compound 79]  0.56 µM
3. [2H]C([2H])([2H])c1cc2cc(CNC(=O)c3cnn(CC(F)(F)F)c3)ccc2[nH]1 [Compound 82]  0.98 µM
4. Cc1cc(C(=O)N[C@H](C)c2cc3cc(C)[nH]c3cc2F)on1 [Compound 102, N-[(1R)-1-(6-fluoro-2-methyl-1H-indol-5-yl)ethyl]-3-methyl-isoxazole-5-carboxamide]  1 µM
5. Cc1cc(C(=O)N[C@H](C)c2cc(F)c3[nH]c(C)cc3c2)on1 [Compound 111, N-[(1R)-1-(7-fluoro-2-methyl-1H-indol-5-yl)ethyl]-3-methyl-isoxazole-5-carboxamide]  1.3 µM
6. Cc1cc2cc(CNC(=O)c3cc(CCF)no3)ccc2[nH]1 [Compound 106, 3-(2-fluoroethyl)-N-[(2-methyl-1H-indol-5-yl)methyl]isoxazole-5-carboxamide]  1.7 µM
7. CCc1cc(C(=O)NCc2ccc3[nH]c(C)cc3c2)no1 [Compound 75, 5-ethyl-N-[(2-methyl-1H-indol-5-yl)methyl]isoxazole-3-carboxamide]  2.1 µM
8. Cc1cc(C(=O)NC(C)c2ccc3[nH]c(C)cc3c2)on1 (racemic) [Compound 33, 3-methyl-N-[1-(2-methyl-1H-indol-5-yl)ethyl]isoxazole-5-carboxamide]  2.63 µM
9. Cc1cc2cc(CNC(=O)c3cc(C)on3)ccc2[nH]1 [Compound 8, 5-methyl-N-[(2-methyl-1H-indol-5-yl)methyl]isoxazole-3-carboxamide]  3.2 µM
10. Cc1cc2cc(CNC(=O)c3nccs3)ccc2[nH]1 [Compound 20, N-[(2-methyl-1H-indol-5-yl)methyl]thiazole-2-carboxamide]  3.3 µM
11. COCc1cc(C(=O)NCc2ccc3[nH]c(C)cc3c2)on1 [Compound 98, 3-(methoxymethyl)-N-[(2-methyl-1H-indol-5-yl)methyl]isoxazole-5-carboxamide]  3.5 µM
12. Cc1cc2cc(CNC(=O)c3cccn3C)ccc2[nH]1 [Compound 57, 1-methyl-N-[(2-methyl-1H-indol-5-yl)methyl]pyrrole-2-carboxamide]  3.87 µM
13. Cc1cc(C(=O)N[C@H](C)c2ccc3[nH]c(C#N)cc3c2)on1 [Compound 121, N-[(1R)-1-(2-cyano-1H-indol-5-yl)ethyl]-3-methyl-isoxazole-5-carboxamide]  4.8 µM
14. COCc1cc(C(=O)NCc2ccc3[nH]c(C(F)(F)F)cc3c2)on1 [Compound 114, 3-(methoxymethyl)-N-[[2-(trifluoromethyl)-1H-indol-5-yl]methyl]isoxazole-5-carboxamide]  5 µM
15. Cc1cc2cc([C@@H](C)NC(=O)c3cnn(C4COC4)c3)ccc2[nH]1 [Compound 52, N-[(1R)-1-(2-methyl-1H-indol-5-yl)ethyl]-1-(oxetan-3-yl)pyrazole-4-carboxamide]  5.3 µM
16. Cc1cc(C(=O)NC(C)c2ccc3[nH]ccc3c2)on1 (stereo not drawn) [Compound 38, N-[1-(1H-indol-5-yl)ethyl]-3-methyl-isoxazole-5-carboxamide]  5.9 µM
17. Cc1cc2cc([C@@H](C)NC(=O)c3cnn(C)c3)ccc2[nH]1 [Compound 44, 1-methyl-N-[(1R)-1-(2-methyl-1H-indol-5-yl)ethyl]pyrazole-4-carboxamide]  6.1 µM
18. Cc1cc(C(=O)NCc2ccc3[nH]c(C)cc3c2F)on1 [Compound 110, N-[(4-fluoro-2-methyl-1H-indol-5-yl)methyl]-3-methyl-isoxazole-5-carboxamide]  6.5 µM
19. COc1cc(C(=O)NC(C)c2ccc3[nH]c(C)cc3c2)on1 (racemic) [Compound 18, 3-methoxy-N-[1-(2-methyl-1H-indol-5-yl)ethyl]isoxazole-5-carboxamide]  6.7 µM
20. Cc1cc2cc(CNC(=O)c3ocnc3C)ccc2[nH]1 [Compound 22, 4-methyl-N-[(2-methyl-1H-indol-5-yl)methyl]oxazole-5-carboxamide]  7.2 µM
21. Cc1cc2cc(CNC(=O)c3ccc[nH]3)ccc2[nH]1 [Compound 14, N-[(2-methyl-1H-indol-5-yl)methyl]-1H-pyrrole-2-carboxamide]  7.4 µM
22. O=C(NCc1ccc2c(ccn2C(F)F)c1)c1cc(CC(F)(F)F)no1 [Compound 72, N-[[1-(difluoromethyl)indol-5-yl]methyl]-3-(2,2,2-trifluoroethyl)isoxazole-5-carboxamide]  7.6 µM
23. Cc1cc2cc(CNC(=O)c3cc(CC(F)(F)F)no3)ccc2n1C(F)(F)F [Compound 85, N-[[2-methyl-1-(trifluoromethyl)indol-5-yl]methyl]-3-(2,2,2-trifluoroethyl)isoxazole-5-carboxamide]  7.7 µM
24. Cc1cc2cc(CNC(=O)c3coc(C)n3)ccc2[nH]1 [Compound 76, 2-methyl-N-[(2-methyl-1H-indol-5-yl)methyl]oxazole-4-carboxamide]  8.2 µM
25. COCCn1cc(C(=O)NCc2ccc3[nH]c(C)cc3c2)cn1 [Compound 100, 1-(2-methoxyethyl)-N-[(2-methyl-1H-indol-5-yl)methyl]pyrazole-4-carboxamide]  8.5 µM
26. Cc1cc(C(=O)NCc2ccc3[nH]ccc3c2)on1 [Compound 58, N-(1H-indol-5-ylmethyl)-3-methyl-isoxazole-5-carboxamide]  8.57 µM
27. Cc1cc2cc(CNC(=O)c3sc(C)nc3C)ccc2[nH]1 [Compound 2, 2,4-dimethyl-N-[(2-methyl-1H-indol-5-311)methyl]thiazole-5-carboxamide]  9.8 µM
28. Cc1cc2cc(CNC(=O)c3ccn(C)c3)ccc2[nH]1 [Compound 37, 1-methyl-N-[(2-methyl-1H-indol-5-yl)methyl]pyrrole-3-carboxamide]  9.8 µM
